# Experimental data taken from patent US12590062B2, “PD-1/PD-L1 inhibitors” (Gilead Sciences, Inc., priority 2017, dated 2026).
# Molecular target: T1, PD-1/PD-L1 interaction (Homo sapiens, UniProt Q9NZQ7)
# T1 construct: expressed in transfected cells; host or cells: CHO cells (aAPC-PD-L1) co-cultured with Jurkat cells overexpressing PD-1 and an NFAT-luciferase reporter
# Assay: PD-1/PD-L1 NFAT reporter co-culture assay
# Assay type: cell-based
# Details: Jurkat PD-1 NFAT-luciferase cells co-cultured with aAPC-PD-L1 CHO cells, 6 hrs at 37° C.; read-out: EC50 NFAT Luciferase
# Method: PD-1/PD-L1 NEAT Reporter Assay:
# Compounds were tested in afunctional co-culture reporter assay in which TCR-mediated NFAT activity is inhibited by the engagement of PD-1 with PD-L1. […] CHO cells expressing surface-bound anti-CD3 antibodies and PD-L1 (artificial antigen presenting cells, aAPC-PD-L1) were first seeded overnight. Jurkat cells overexpressing PD-1 and expressing a luciferase construct under NFAT control are diluted in RPMI assay medium (RPMI 1640 with 2% FBS), mixed with compounds, and immediately seeded on the monolayer of aAPC-PD-L1. The co-culture is then incubated for 6 hrs at 37° C. Luciferase activity is assessed by adding the ONE-Glo reagent and measuring luminescence with a plate reader. EC50 values are calculated from the fit of the dose-response curves to a four-parameter equation (Table 3).
# T1 sequence (Q9NZQ7 19-290): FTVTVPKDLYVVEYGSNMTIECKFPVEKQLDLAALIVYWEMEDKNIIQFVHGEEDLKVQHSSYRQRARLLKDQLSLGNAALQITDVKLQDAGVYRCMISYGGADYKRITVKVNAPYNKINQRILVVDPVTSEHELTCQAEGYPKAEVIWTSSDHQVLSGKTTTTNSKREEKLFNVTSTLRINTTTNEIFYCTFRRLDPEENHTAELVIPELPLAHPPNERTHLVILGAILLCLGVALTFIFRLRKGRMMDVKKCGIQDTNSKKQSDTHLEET
row,Compound,EC50
1,"COc1nc(OCc2cccc(-c3cccc(COc4nc(OC)c(CN[C@@H](C)C(N)=O)cc4Cl)c3C)c2C)c(Cl)cc1CN[C@@H](C)C(N)=O [Example 101, (2S,2′S)-2,2′-((((((2,2′-dimethyl-[1,1′-biphenyl]-3,3′-diyl)bis(methylene))bis(oxy))bis(5-chloro-2-methoxypyridine-6,3-diyl))bis(methylene))bis(azanediyl))dipropanamide]",1800 nM
2,"COc1nc(OCc2cccc(-c3cccc(COc4nc(OC)c(CNCc5c[nH]nn5)cc4Cl)c3C)c2C)c(Cl)cc1CNCc1c[nH]nn1 [Example 171, 1,1′-((((2,2′-dimethyl-[1,1′-biphenyl]-3,3′-diyl)bis(methylene))bis(oxy))bis(5-chloro-2-methoxypyridine-6,3-diyl))bis(N-((1H-1,2,3-triazol-4-yl)methyl)methanamine)]",7720 nM
3,"COc1nc(OCc2cccc(-c3cccc(COc4nc(OC)c(CN[C@H]5CCC[C@H]5O)cc4Cl)c3C)c2C)c(Cl)cc1CN[C@H]1CCC[C@H]1O [Example 226, (1R,1′R,2S,2′S)-2,2′-((((((2,2′-dimethyl-[1,1′-biphenyl]-3,3′-diyl)bis(methylene))bis(oxy))bis(5-chloro-2-methoxypyridine-6,3-diyl))bis(methylene))bis(azanediyl))bis(cyclopentan-1-ol)]",775 nM
4,"COc1nc(OCc2cccc(-c3cccc(COc4nc(OC)c(CNCC(C)(C)C(=O)O)cc4Cl)c3C)c2C)c(Cl)cc1CNCC(C)(C)C(=O)O [Example 77, 3,3′-((((((2,2′-dimethyl-[1,1′-biphenyl]-3,3′-diyl)bis(methylene))bis(oxy))bis(5-chloro-2-methoxypyridine-6,3-diyl))bis(methylene))bis(azanediyl))bis(2,2-dimethylpropanoic acid)]",≥ 50000 nM
5,"COc1nc(OCc2cccc(-c3cccc(COc4nc(OC)c(CN[C@H]5CCCC[C@H]5O)cc4Cl)c3C)c2C)c(Cl)cc1CN[C@H]1CCCC[C@H]1O [Example 228, (1R,1′R,2S,2′S)-2,2′-((((((2,2′-dimethyl-[1,1′-biphenyl]-3,3′-diyl)bis(methylene))bis(oxy))bis(5-chloro-2-methoxypyridine-6,3-diyl))his(methylene))his(azanediyl))his(cyclohexan-1-ol)]",844 nM
6,"COc1nc(OCc2cccc(-c3cccc(COc4nc(OC)c(CNCC(=O)NS(C)(=O)=O)cc4Cl)c3C)c2C)c(Cl)cc1CNCC(=O)NS(C)(=O)=O [Example 168, 2,2′-((((((2,2′-Dimethyl-[1,1′-biphenyl]-3,3′-diyl)bis(methylene))bis(oxy))bis(5-chloro-2-methoxypyridine-6,3-diyl))bis(methylene))bis(azanediyl))bis(N-(methylsulfonyl)acetamide)]",308 nM
7,"CNC(=O)[C@H](C)NCc1cc(Cl)c(OCc2cccc(-c3cccc(COc4nc(OC)c(CN[C@@H](C)C(=O)NC)cc4Cl)c3C)c2C)nc1OC [Example 88, (2S,2′S)-2,2′-((((((2,2′-dimethyl-[1,1′-biphenyl]-3,3′-diyl)bis(methylene))bis(oxy))bis(5-chloro-2-methoxypyridine-6,3-diyl))bis(methylene))bis(azanediyl))bis(N-methylpropanamide)]",4150 nM
8,"Cc1c(COc2nc(OCCc3cc[nH]n3)c(CNC[C@@H](O)CC(=O)O)cc2Br)cccc1-c1cccc(COc2nc(OCCc3cc[nH]n3)c(CNC[C@@H](O)CC(=O)O)cc2Br)c1C [Example 142, (3S,3′S)-4,4′-((((((2,2′-dimethyl-[1,1′-biphenyl]-3,3′-diyl)bis(methylene))bis(oxy))bis(2-(2-(1H-pyrazol-3-yl)ethoxy)-5-bromopyridine-6,3-diyl))bis(methylene))bis(azanediyl))bis(3-hydroxybutanoic acid)]",235 nM
9,"COc1nc(OCc2cccc(-c3cccc(COc4nc(OC)c(CNCCNS(C)(=O)=O)cc4Br)c3C)c2C)c(Br)cc1CNCCNS(C)(=O)=O [Example 266, N,N′-(((((((2,2′-dimethyl-[1,1′-biphenyl]-3,3′-diyl)bis(methylene))bis(oxy))bis(5-bromo-2-methoxypyridine-6,3-diyl))bis(methylene))bis(azanediyl))bis(ethane-2,1-diyl))dimethanesulfonamide]",1380 nM
10,"COc1nc(OCc2cccc(-c3cccc(COc4nc(OC)c(CN[C@@H](CCC(N)=O)C(=O)O)cc4Br)c3C)c2C)c(Br)cc1CN[C@@H](CCC(N)=O)C(=O)O [Example 115, (2S,2′S)-2,2′-((((((2,2′-dimethyl-[1,1′-biphenyl]-3,3′-diyl)bis(methylene))bis(oxy))bis(5-bromo-2-methoxypyridine-6,3-diyl))bis(methylene))bis(azanediyl))bis(5-amino-5-oxopentanoic acid)]",≥ 50000 nM
11,"COc1nc(OCc2cccc(-c3cccc(COc4nc(OC)c(C(=O)NC[C@@H](O)CC(=O)O)cc4Cl)c3C)c2C)c(Cl)cc1C(=O)NC[C@@H](O)CC(=O)O [Example 237, (3S,3′S)-4,4′-((6,6′-(((2,2′-dimethyl-[1,1′-biphenyl]-3,3′-diyl)bis(methylene))bis(oxy))bis(5-chloro-2-methoxynicotinoyl))bis(azanediyl))bis(3-hydroxybutanoic acid)]",≥ 50000 nM
12,"COc1nc(OCc2cccc(-c3cccc(COc4nc(OC)c(CN[C@H]5CCC[C@@H]5O)cc4Cl)c3C)c2C)c(Cl)cc1CN[C@H]1CCC[C@@H]1O [Example 230, (1S,1′S,2S,2′S)-2,2′-((((((2,2′-dimethyl-[1,1′-biphenyl]-3,3′-diyl)bis(methylene))bis(oxy))bis(5-chloro-2-methoxypyridine-6,3-diyl))bis(methylene))bis(azanediyl))bis(cyclopentan-1-ol)]",821 nM
13,"COc1nc(OCc2cccc(-c3cccc(COc4nc(OC)c(CNC[C@@H](O)CC(=O)O)cc4Br)c3Cl)c2Cl)c(Br)cc1CNC[C@@H](O)CC(=O)O [Example 189, (3S,3′S)-4,4′-((((((2,2′-Dichloro-[1,1′-biphenyl]-3,3′-diyl)bis(methylene))bis(oxy))bis(5-bromo-2-methoxypyridine-6,3-diyl))bis(methylene))bis(azanediyl))bis(3-hydroxybutanoic acid)]",106 nM
14,"Cc1c(COc2cc(OCc3cccc(S(C)(=O)=O)c3)c(CN[C@@](C)(CO)C(=O)O)cc2Cl)cccc1-c1cccc(COc2cc(OCc3cccc(S(C)(=O)=O)c3)c(CN[C@@](C)(CO)C(=O)O)cc2Cl)c1C [Example 57, (2S,2′S)-2,2′-((((((2,2′-dimethyl-[1,1′-biphenyl]-3,3′-diyl)bis(methylene))bis(oxy))bis(5-chloro-2-((3-(methylsulfonyl)benzyl)oxy)-4,1-phenylene))bis(methylene))bis(azanediyl))bis(3-hydroxy-2-methylpropanoic acid)]",351 nM
15,"COc1nc(OCc2cccc(-c3cccc(COc4nc(OC)c(CN[C@H]5CCCC[C@@H]5C(=O)O)cc4Cl)c3C)c2C)c(Cl)cc1CN[C@H]1CCCC[C@@H]1C(=O)O [Example 80, (1S,1′S,2S,2′S)-2,2′-((((((2,2′-dimethyl-[1,1′-biphenyl]-3,3′-diyl)bis(methylene))bis(oxy))bis(5-chloro-2-methoxypyridine-6,3-diyl))bis(methylene))bis(azanediyl))bis(cyclohexane-1-carboxylic acid)]",≥ 50000 nM
16,"COc1nc(OCc2cccc(-c3cccc(COc4nc(OC)c(CNCc5nnn[nH]5)cc4Cl)c3C)c2C)c(Cl)cc1CNCc1nnn[nH]1 [Example 169, 1,1′-((((2,2′-dimethyl-[1,1′-biphenyl]-3,3′-diyl)bis(methylene))bis(oxy))bis(5-chloro-2-methoxypyridine-6,3-diyl))bis(N-((1H-tetrazol-5-yl)methyl)methanamine)]",225 nM
17,"COc1nc(OCc2cccc(-c3cccc(COc4nc(OC)c(CN5CCC5C(N)=O)cc4Cl)c3C)c2C)c(Cl)cc1CN1CCC1C(N)=O (centres unmarked) [Example 65, 1,1′-(((((2,2′-dimethyl-[1,1′-biphenyl]-3,3′-diyl)bis(methylene))bis(oxy))bis(5-chloro-2-methoxypyridine-6,3-diyl))bis(methylene))bis(azetidine-2-carboxamide)]",3350 nM
18,"COC(=O)[C@H](C)NCc1cc(Cl)c(OCc2cccc(-c3cccc(COc4nc(OC)c(CN[C@@H](C)C(=O)OC)cc4Cl)c3C)c2C)nc1OC [Example 100, Dimethyl 2,2′-((((((2,2′-dimethyl-[1,1′-biphenyl]-3,3′-diyl)bis(methylene))bis(oxy))bis(5-chloro-2-methoxypyridine-6,3-diyl))bis(methylene))bis(azanediyl))(2S,2′S)-dipropionate]",482 nM
19,"COc1nc(OCc2cccc(-c3cccc(COc4nc(OC)c(CN[C@H](C(=O)O)[C@@H](C)O)cc4Cl)c3C)c2C)c(Cl)cc1CN[C@H](C(=O)O)[C@@H](C)O [Example 51, (2S,2′S,3R,3′R)-2,2′-((((((2,2′-dimethyl-[1,1′-biphenyl]-3,3′-diyl)bis(methylene))bis(oxy))bis(5-chloro-2-methoxypyridine-6,3-diyl))bis(methylene))bis(azanediyl))bis(3-hydroxybutanoic acid)]",105 nM
20,"COc1nc(OCc2cccc(-c3cccc(COc4nc(OC)c([C@@H]5NCC[C@@H]5C(=O)O)cc4Cl)c3C)c2C)c(Cl)cc1[C@@H]1NCC[C@@H]1C(=O)O [Example 104, (2R,2′R,3S,3′S)-2,2′-((((2,2′-dimethyl-[1,1′-biphenyl]-3,3′-diyl)bis(methylene))bis(oxy))bis(5-chloro-2-methoxypyridine-6,3-diyl))bis(pyrrolidine-3-carboxylic acid)]",≥ 50000 nM
